Consider one substance from US12036267B2 (BICT S.R.L., priority 2017, dated 2024).

Assay [1] deals with S. aureus. In words: Antimicrobial activity (MIC / FIC index) of extracts and nisin. The assay is classed as cell-based. As to conditions: nisin alone. The procedure:
(§1) The antimicrobial activity of the composition according to the invention has been assessed in relation to gram-positive and gram-negative bacteria, as well as fungi and yeast, by means of in vitro susceptibility testing with the antimicrobial dilution method (CLSI protocols—Clinical and Laboratory Standards Institute), as a result of which the MIC (Minimum Inhibitory Concentration) was determined for each of the microorganisms in question.
(§2) For all the tests carried out, a positive control for the antimicrobial activity was carried out by using fluconazole (for fungi and yeasts) and ceftriaxone (for bacterial strains) and a negative control (no compounds) in which the correct microbial growth was assessed.
(§3) The FIC index is determined using the following formula:
(§4) FIC Index>1=> no synergistic effect
(§5) In this example, the antimicrobial activity of the individual natural extracts was first assessed as follows:
(§6) The antimicrobial activity of the individual natural extracts was then assessed in association with the composition according to the invention in Example 8:
(§7) The interaction of the composition in Example 8 with other natural antimicrobial peptides, such as nisin, was assessed.
(§8) After determining the antimicrobial activity of nisin alone, the antimicrobial activity of nisin was assessed in association with the composition according to the invention: […]

Assay [2] relates to E. coli. The assay is described as above. The assay is classed as cell-based. Conditions: nisin alone. The procedure: as §1, §2, §3, §4, §5, §6, §7, §8

On to nisin, for which the MIC entry in assay [1] is “S. aureus - 17 UI/ml”; in assay [2], “E. coli - 18750 UI/ml”.
